Laboratory results: US9645154B2, “Method for detecting cancer cell” (ARKRAY, Inc., priority 2010, dated 2017)

Key:
[1] = test system: Breast cancer cell line MCF-7 and blood cells (leucocytes and erythrocytes); test: 2-NBDG incorporation observed visually under a fluorescence microscope; assay type: cell-based, human; settings: sample 1, mixture of MCF-7 and blood cells, 37° C., 40 minutes
Protocol: From venous blood of a healthy person, a […] and precipitates were separated by centrifugation according to the conventional method. From the […], a leucocyte layer and an erythrocyte layer were partially collected, and then resuspended in PBS to prepare a leucocyte sample and a erythrocyte sample, respectively.
Breast cancer cell line MCF-7 (purchased from DS Pharma Biomedical Co., Ltd). was cultured at 37° C. with 5% (v/v) CO2 using α-MEM culture medium (Invitrogen, supplemented with 10% (v/v) FBS, 2 mM L-glutamine, 100 U/mL penicillin and 100 μg/mL streptomycin). Immediately before the test, the cells were harvested with 0.25% trypsin-EDTA and washed with PBS, thereby preparing a cancer cell line sample.
To each of 300 μL (4×10^5 cells/mL) of the cancer cell line, the blood cells (leucocytes and erythrocytes) or a mixture thereof was added 30 μL of 10 mM 2-[N-(7-nitrobenz-2-oxa-1,3-diazol-4-yl)amino]-2-deoxy-D-glucose (2-NBDG) (Wako Pure Chemical Industries, Ltd.) according to the description in Table 2, thereby preparing samples 1 to 7. These samples were then incubated at 37° C. for 40 minutes. To the sample to which 2-NBDG was not added, a corresponding amount of PBS was added instead of 2-NBDG.
After incubation, each sample was centrifuged at 2,000 rpm for 5 minutes (Hitachi Ltd.) to harvest the cells. To the harvested cells was added 10 μL of an anti-EpCAM antibody-PE (R&D systems), and the mixture was allowed to stand for 30 minutes in the cool and dark place.
After 30 minutes, the mixture was washed with 1,000 μL of PBS, and the cells were harvested by centrifugation at 2000 rpm for 5 minutes in accordance with the conventional method.
The harvested cells were resuspended in 50 μL of PBS, and the entire volume thereof was transferred to a 96-well plate, thereby preparing an observation sample.
Each of the observation samples was observed under a fluorescence microscope (Nikon Corp.), and an amount of 2-NBDG incorporated was visually observed.

[2] = test system: Mixture of blood cells and PC3 cells; test: Aminolevulinic acid labeling combined with anti-CD45/anti-CD34 and anti-EpCAM antibodies; assay type: cell-based, human; settings: ALA: 0.3 mM, FeC12: 0.3 mM, Ascorbic acid: 0.3 mM, 37° C., 60 min, threshold value 216
Excerpt: Blood was collected from a human subject using a vacuum blood collection tube (with EDTA•2K). Blood cells were separated using HetaSep (STEMCELL Technologies) in accordance with the manufacturer's instructions.
In accordance with the conventional method, cultured human prostate cancer cell line (PC3, DS Pharma Biomedical Co., Ltd.) was harvested with trypsin (Invitrogen). The cell suspension of the harvested cancer cells was centrifuged, and the supernatant was removed. The cells were resuspended with Dulbecco's PBS (+) (Nissui Pharmaceutical Co., Ltd.) and centrifuged, and the supernatant was removed again.
The number of the cells in the suspension of the isolated blood cells was counted using a hemacytometer in accordance with the conventional method. Further, the number of the cells was also counted for the human prostate cancer cell line (PC3) in a similar manner, and the cells were added to the blood cell suspension to give a cell number of 1% of that of the blood cells. […]
The number of the cells was counted using a hemacytometer in accordance with the conventional method, and then 10^5 to 10^6 cells per sample (cell suspension) was aliquoted. […] The image was captured with a fluorescence microscope (Nikon Corp.). Protoporphyrin IX was detected with the fluorescence filter set 1, the PE-labeled anti-EpCAM antibody was detected with the fluorescence filter set 2, and the FITC-labeled anti-CD45 antibody and the FITC-labeled anti-CD34 antibody were detected with the fluorescence filter set 3.
Wavelengths for the fluorescence filter set 1: EX (excitation wavelength) 402±7.5 nm, DM 430 nm or longer, BA (fluorescence wavelength) 625±15 nm.
Wavelengths for the fluorescence filter set 2: EX (excitation wavelength) 535±25 nm, DM 575 nm or longer, BA (fluorescence wavelength) 590 nm or longer.
Wavelengths for the fluorescence filter set 3: EX (excitation wavelength) 475±15 nm, DM 505 nm or longer, BA (fluorescence wavelength) 525±10 nm. […]

Compound	fluorescence image of erythrocyte cell [1]	fluorescence intensity of the leucocyte cell image relative to the cancer cell [1]	observation of the cancer cell line in the fluorescence image ([1]; FIGS. 4 to 6)	False-positive rate (using α-CD45/34) ([2]; FITC-α-CD45/CD34 antibody) [%]	Positive rate ([2]; PC3 at 1% of blood cells, hemolyzed) [%]	False-positive rate (without using α-CD45/34) [2] [%]
O=[N+]([O-])c1ccc(N[C@H]2C(O)O[C@H](CO)[C@@H](O)[C@@H]2O)c2nonc12 (stereo partly drawn) [2-NBDG, 2-[N-(7-nitrobenz-2-oxa-1,3-diazol-4-yl)amino]-2-deoxy-D-glucose]	not observed at all	equal to or less than half the fluorescence intensity of the cancer cell	clearly observed	–	–	–
NCC(=O)CCC(=O)O [aminolevulinic acid, 5-amino-4-oxopentanoic acid]	–	–	–	0.0	85	1.1
